From the supplement of paper PMC10307832

What was measured:
Test in all cases: relative viability (nuclei count vs DMSO), 5 days (fraction); higher = more cells survive
[1] = tested on: UMC-11
In short: (§1)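 Relative viability was taken as the ratio of nuclei in treated wells to nuclei in vehicle wells. Lung cancer cell lines in 1536-well plates received compounds by pin tool one day after seeding, either one drug alone or a fixed anchor-drug dose plus five library-drug doses (not always all listed) in √10 steps. Nuclei were counted on 4× images after 5 days of treatment, and values are medians of duplicate plates.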

[2] = tested on: NCI-H647
In short: as §1

[3] = tested on: NCI-H358
In short: as §1

[4] = tested on: ABC-1
In short: as §1

[5] = tested on: HCC-827
In short: as §1

[6] = tested on: NCI-H727
In short: as §1

[7] = tested on: NCI-H2087
In short: as §1

[8] = tested on: NCI-H661
In short: as §1

[9] = tested on: NCI-H1651
In short: as §1

[10] = tested on: NCI-H1975
In short: as §1

[11] = tested on: NCI-H1437
In short: as §1

[12] = tested on: EKVX
In short: as §1

[13] = tested on: NCI-H520
In short: as §1

[14] = tested on: EPLC-272H
In short: as §1

[15] = tested on: NCI-H1792
In short: as §1

[16] = tested on: 201T
In short: as §1

[17] = tested on: H3255
In short: as §1

[18] = tested on: COR-L 105
In short: as §1

[19] = tested on: COR-L23
In short: as §1

[20] = tested on: HCC-44
In short: as §1

[21] = tested on: LCLC-103H
In short: as §1

[22] = tested on: HCC-15
In short: as §1

Compound: O=C(O)CCCCC(CCSCc1ccccc1)SCc1ccccc1 (stereo not given) [CPI-613] + C[C@]1(O)C[C@@H](c2nc(-c3ccc4ccc(-c5ccccc5)nc4c3)c3c(N)nccn32)C1 [Linsitinib] (partner 1 µM)
- relative viability ([1]; first compound 5 µM): 0.881
- relative viability ([1]; first compound 15.81 µM): 1
- relative viability ([1]; first compound 50 µM): 0.992
- relative viability ([1]; first compound 158.11 µM): 0.282
- relative viability ([1]; first compound 500 µM): 0.0946
- relative viability ([2]; first compound 5 µM): 1.16
- relative viability ([2]; first compound 15.81 µM): 1.13
- relative viability ([2]; first compound 50 µM): 0.951
- relative viability ([2]; first compound 158.11 µM): 0.107
- relative viability ([2]; first compound 500 µM): 0.0169
- relative viability ([3]; first compound 5 µM): 0.684
- relative viability ([3]; first compound 15.81 µM): 0.769
- relative viability ([3]; first compound 50 µM): 0.743
- relative viability ([3]; first compound 158.11 µM): 0.347
- relative viability ([3]; first compound 500 µM): 0.0758
- relative viability ([4]; first compound 5 µM): 0.744
- relative viability ([4]; first compound 15.81 µM): 1.02
- relative viability ([4]; first compound 50 µM): 0.815
- relative viability ([4]; first compound 158.11 µM): 0.254
- relative viability ([4]; first compound 500 µM): 0.169
- relative viability ([5]; first compound 5 µM): 0.967
- relative viability ([5]; first compound 15.81 µM): 0.892
- relative viability ([5]; first compound 50 µM): 0.906
- relative viability ([5]; first compound 158.11 µM): 0.613
- relative viability ([5]; first compound 500 µM): 0.0916
- relative viability ([6]; first compound 5 µM): 0.251
- relative viability ([6]; first compound 15.81 µM): 0.343
- relative viability ([6]; first compound 50 µM): 0.2
- relative viability ([6]; first compound 158.11 µM): 0.216
- relative viability ([6]; first compound 500 µM): 0.0496
- relative viability ([7]; first compound 5 µM): 1.01
- relative viability ([7]; first compound 15.81 µM): 0.758
- relative viability ([7]; first compound 50 µM): 0.868
- relative viability ([7]; first compound 158.11 µM): 0.178
- relative viability ([7]; first compound 500 µM): 0.0125
- relative viability ([8]; first compound 5 µM): 0.49
- relative viability ([8]; first compound 15.81 µM): 0.458
- relative viability ([8]; first compound 50 µM): 0.668
- relative viability ([8]; first compound 158.11 µM): 0.503
- relative viability ([8]; first compound 500 µM): 0.511
- relative viability ([9]; first compound 5 µM): 0.968
- relative viability ([9]; first compound 15.81 µM): 0.92
- relative viability ([9]; first compound 50 µM): 0.836
- relative viability ([9]; first compound 158.11 µM): 0.316
- relative viability ([9]; first compound 500 µM): 0.133
- relative viability ([10]; first compound 5 µM): 0.938
- relative viability ([10]; first compound 15.81 µM): 1.03
- relative viability ([10]; first compound 50 µM): 1.13
- relative viability ([10]; first compound 158.11 µM): 0.541
- relative viability ([10]; first compound 500 µM): 0.0601
- relative viability ([11]; first compound 5 µM): 1.03
- relative viability ([11]; first compound 15.81 µM): 0.902
- relative viability ([11]; first compound 50 µM): 0.916
- relative viability ([11]; first compound 158.11 µM): 0.137
- relative viability ([11]; first compound 500 µM): 0.0235
- relative viability ([12]; first compound 5 µM): 0.993
- relative viability ([12]; first compound 15.81 µM): 0.988
- relative viability ([12]; first compound 50 µM): 0.955
- relative viability ([12]; first compound 158.11 µM): 1.04
- relative viability ([12]; first compound 500 µM): 1.05
- relative viability ([13]; first compound 5 µM): 0.842
- relative viability ([13]; first compound 15.81 µM): 1.09
- relative viability ([13]; first compound 50 µM): 1.03
- relative viability ([13]; first compound 158.11 µM): 0.412
- relative viability ([13]; first compound 500 µM): 0.12
- relative viability ([14]; first compound 5 µM): 1.21
- relative viability ([14]; first compound 15.81 µM): 1.15
- relative viability ([14]; first compound 50 µM): 1.05
- relative viability ([14]; first compound 158.11 µM): 0.759
- relative viability ([14]; first compound 500 µM): 0.698
- relative viability ([15]; first compound 5 µM): 0.514
- relative viability ([15]; first compound 15.81 µM): 0.49
- relative viability ([15]; first compound 50 µM): 0.56
- relative viability ([15]; first compound 158.11 µM): 0.411
- relative viability ([15]; first compound 500 µM): 0.512
- relative viability ([16]; first compound 5 µM): 0.98
- relative viability ([16]; first compound 15.81 µM): 0.969
- relative viability ([16]; first compound 50 µM): 1.01
- relative viability ([16]; first compound 158.11 µM): 0.864
- relative viability ([16]; first compound 500 µM): 0.8
- relative viability ([17]; first compound 5 µM): 0.915
- relative viability ([17]; first compound 15.81 µM): 0.989
- relative viability ([17]; first compound 50 µM): 0.969
- relative viability ([17]; first compound 158.11 µM): 0.948
- relative viability ([17]; first compound 500 µM): 0.921
- relative viability ([18]; first compound 5 µM): 1.15
- relative viability ([18]; first compound 15.81 µM): 0.77
- relative viability ([18]; first compound 50 µM): 0.902
- relative viability ([18]; first compound 158.11 µM): 0.664
- relative viability ([18]; first compound 500 µM): 0.181
- relative viability ([19]; first compound 5 µM): 0.851
- relative viability ([19]; first compound 15.81 µM): 0.918
- relative viability ([19]; first compound 50 µM): 0.779
- relative viability ([19]; first compound 158.11 µM): 0.334
- relative viability ([19]; first compound 500 µM): 0.0236
- relative viability ([20]; first compound 5 µM): 0.625
- relative viability ([20]; first compound 15.81 µM): 0.666
- relative viability ([20]; first compound 50 µM): 0.717
- relative viability ([20]; first compound 158.11 µM): 0.393
- relative viability ([20]; first compound 500 µM): 0.0377
- relative viability ([21]; first compound 5 µM): 1.11
- relative viability ([21]; first compound 15.81 µM): 1.01
- relative viability ([21]; first compound 50 µM): 1.08
- relative viability ([21]; first compound 158.11 µM): 1
- relative viability ([21]; first compound 500 µM): 0.866
- relative viability ([22]; first compound 5 µM): 0.878
- relative viability ([22]; first compound 15.81 µM): 0.845
- relative viability ([22]; first compound 50 µM): 0.794
- relative viability ([22]; first compound 158.11 µM): 0.467
- relative viability ([22]; first compound 500 µM): 0.359
